Key:
[1] = system: BDF1 mice; assay: Appetite-stimulating and body weight-increasing effects, intraperitoneal administration once a day for 15 days; type: in vivo, mouse; conditions: BDF1 mice (7 weeks old, female), i.p. once a day for 15 days, vs control group; for body weight: FIG. 1; for food intake: FIG. 2
Experimental: (§1) A subjective compound was suspended in saline containing 3.5% dimethylsulfoxide and 6.5% Tween 80, and intraperitoneally administered to BDF1 mice (7 weeks old, female) in a given amount once a day for 15 days (day 0 to day 14). To mice of a control group, saline containing 3.5% dimethylsulfoxide and 6.5% Tween 80 was intraperitoneally administered. Administration was conducted at 1 p.m. every day, and the body weight (day 0 to day 15) and the food intake since the preceding day (day 1 to day 15) were weighed immediately before the administration. The experiments were conducted using 5 mice per group for each of the drug-administered group and the control group. The numbers of the compound examples are the same as in the list described above (hereinafter, the same applies).

[2] = system: mice; assay: Toxicity observation on successive administration to mice for 15 days; type: in vivo; conditions: 100 mg/kg and 200 mg/kg successively for 15 days
Experimental: as §1
Thus, it is considered that the compound represented by the general formula (I) has low toxicity.

[3] = system: Interleukin-1-beta; assay: Gene expression analysis of white adipose tissues by GeneChip (Affymetrix) Murine Genome U74A; type: in vivo, mouse; conditions: day 15, 200 mg/kg i.p. once a day for 15 days, BDF1 mice, Accession M15131
Experimental: (§2) The compound of the Compound 17 was suspended in saline containing 3.5% dimethylsulfoxide and 6.5% Tween 80, and intraperitoneally administered to BDF1 mice (7 weeks old, female) in an amount of 200 mg/kg once a day for 15 days (day 0 to day 14). To mice of a control group, saline containing 3.5% dimethylsulfoxide and 6.5% Tween 80 was intraperitoneally administered. The experiments were conducted using 5 mice per group for each of the drug-administered group and the control group. On day 15, white adipose tissues were collected from the mice of the drug-administered group and the control group, and were examined for expression levels of mRNA using GeneChip (Affymetrix) Murine Genome U74A. The experimental operation was conducted in accordance with GeneChip Expression Analysis Technical Manual, and the quantitative analysis was conducted using GeneChip Software.

[4] = system: Interleukin-6; assay: as above; type: in vivo, mouse; conditions: day 15, 200 mg/kg i.p. once a day for 15 days, BDF1 mice, Accession X54542
Experimental: as §2

[5] = system: griPGHS (Glucocorticoid-regulated inflammatory prostaglandin G/H synthase); assay: as above; type: in vivo, mouse; conditions: day 15, 200 mg/kg i.p. once a day for 15 days, BDF1 mice, Accession M88242
Experimental: as §2

SMILES | body weight [1] | food intake [1] | body weight increase [2] | condition of the mice [2] | toxicity [2] | Expression level ratio (drug-administered group/control group), Interleukin-1-beta mRNA [3] | Expression level ratio (drug-administered group/control group), Interleukin-6 mRNA [4] | Expression level ratio (drug-administered group/control group), griPGHS mRNA [5]
N#Cc1cccc(S(=O)(=O)Nc2cccc3c(C#N)c[nH]c23)c1 [Compound 51, 3-Cyano-N-(3-cyano-1H-indol-7-yl)benzenesulfonamide] | increased | increased | body weight increase depending on dose | quite normal condition | no observation indicating toxicity | – | – | –
N#Cc1ccc(S(=O)(=O)Nc2cccc3c(Cl)c[nH]c23)cc1 [Compound 10, N-(3-Chloro-1H-indol-7-yl)-4-cyanobenzenesulfonamide] | increased | increased | body weight increase depending on dose | quite normal condition | no observation indicating toxicity | – | – | –
Cc1ccc(NS(=O)(=O)c2cccc(C#N)c2)c2[nH]cc(C#N)c12 [Compound 94, 3-Cyano-N-(3-cyano-4-methyl-1H-indol-7-yl)-benzenesulfonamide] | increased | increased | body weight increase depending on dose | quite normal condition | no observation indicating toxicity | – | – | –
N#Cc1c[nH]c2c(NS(=O)(=O)c3cccc(Cl)c3)cccc12 [Compound 17, 3-Chloro-N-(3-cyano-1H-indol-7-yl)benzenesulfonamide] | increased | increased | body weight increase depending on dose | quite normal condition | no observation indicating toxicity | 22% | 24% | 26%
